Results as given in article PMC9823088, “The oral selective estrogen receptor degrader GDC-0810 (ARN-810) in postmenopausal women with hormone receptor-positive HER2-negative (HR + /HER2 −) advanced/metastatic breast cancer” (Breast Cancer Research and Treatment, 2022).
Values belong to the molecule of their own block, whether it stands above or below them.

Experiments:
[1] = Plasma pharmacokinetics of GDC-0810 and glucuronide metabolites; type: in vivo, human; conditions: steady state, 600-mg QD, non-fasted condition
Method: Blood samples were collected for pharmacokinetic assessments. Tumor assessments were performed at screening and every 8 weeks from cycle 1, day 1 (C1D1). Radiographic assessment of objective tumor response or disease progression was based on Response Evaluation Criteria in Solid Tumors (RECIST v1.1). Transvaginal ultrasound scans were performed to monitor endometrial thickness at screening, at every 6 months from C1D1, and at the end of treatment. Imaging with [^18F]-fluoroestradiol positron emission tomography (FES-PET) was performed to quantify ER expression in tumors and to assess for pharmacodynamic response. Further assessment details are provided in Supplementary Methods.
CYP2B6 and CYP2C enzymes. […]
Blood samples were collected for pharmacokinetic assessment on lead-in day −7 and cycle 2 day 1 (C2D1) at predose (0 hour) and postdose (0.5, 1, 1.5, 2, 3, 4, 6, 8, and 24 hours), (plus at 48 hours postdose for day−7). Full plasma pharmacokinetic profiles were obtained for GDC-0810 and its glucuronide metabolites (acyl-glucuronide and N-glucuronide) using a validated liquid chromatography/ tandem mass spectrometry method, and analyzed using non-compartmental methods for all patients in the dose escalation cohorts.
Tumor assessments were performed at screening and every 8 weeks from cycle-1, day-1 […]

[2] = set-up: method as in PMID 32919527; conditions: cited from earlier work
[3] = tested on: ER; set-up: method as in PMID 25380844; conditions: patients receiving fulvestrant; cited from earlier work
[4] = tested on: MBC; set-up: method as in PMID 34906954; conditions: cited from earlier work

average plasma exposure of metabolite relative to parent GDC-0810 [1]: ~10%
SMILES: CC/C(=C(/c1ccc(/C=C/C(=O)O[C@@H]2O[C@H](C(=O)O)[C@@H](O)[C@H](O)[C@H]2O)cc1)c1ccc2[nH]ncc2c1)c1ccc(F)cc1Cl [GDC-0810-acyl-glucuronide]

SMILES: C[C@]12CC[C@@H]3c4ccc(O)cc4C[C@@H](CCCCCCCCC[S+]([O-])CCCC(F)(F)C(F)(F)F)[C@H]3[C@@H]1CC[C@@H]2O (some centres unmarked) [fulvestrant]
solubility [2]: poor solubility | patients with residual ER activity by FES-PET [3]: 38%

SMILES: CCNCCc1ccc(CN(CC)c2cc(OC)ccc2[C@@H]2CCc3cc(O)ccc3C2)cc1 [elacestrant]
PFS ([4]; patients with MBC who received endocrine + CDK4/6 previously): 2.8 months | median PFS ([4]; patients with tumors harboring ESR1 mutations): 3.8 months
